In patent US20220354862A1, “LIPOSOME DELIVERY OF PSYCHEDELICS” (Mind Medicine, Inc., priority 2021, published 2022):

Tests used:
[1] = Pharmacokinetic evaluation in rats after bolus IV administration (noribogaine in plasma); assay type: in vivo, Sprague Dawley rats
Description: Pharmacokinetic Evaluation of the Tissue Distribution of Two Test Articles (Noribogaine and BTLS (Brain-Targeted Liposomes)-Noribogaine) in Rats
This study was conducted in adult male Sprague Dawley rats, weighing 250-275 g on arrival. Animals were housed according to the vivarium SOP on a 12-hr light cycle with food and water ad libitum.
72 rats were divided into 12 groups of 6. Test articles were dosed at 10 mg/kg of active substance (generic and liposomal formulation) and administered IV through the tail vein as a bolus. Animals were sampled for 24 hours after administration. Terminal blood and tissue samples (brain, heart, kidney, liver) were collected at 0.08, 0.25, 1, 2, 4 and 8 hours after the dose. The study compared the two groups, noribogaine and BTLS-noribogaine formulation. Concentration of noribogaine in the plasma and tissues was measured ex vivo and pharmacokinetic analysis was performed.

hERG potassium channels = hERG potassium channels (Homo sapiens, UniProt Q12809); conditions: high doses; cited from earlier work
Chain of hERG potassium channels (Q12809 whole entry): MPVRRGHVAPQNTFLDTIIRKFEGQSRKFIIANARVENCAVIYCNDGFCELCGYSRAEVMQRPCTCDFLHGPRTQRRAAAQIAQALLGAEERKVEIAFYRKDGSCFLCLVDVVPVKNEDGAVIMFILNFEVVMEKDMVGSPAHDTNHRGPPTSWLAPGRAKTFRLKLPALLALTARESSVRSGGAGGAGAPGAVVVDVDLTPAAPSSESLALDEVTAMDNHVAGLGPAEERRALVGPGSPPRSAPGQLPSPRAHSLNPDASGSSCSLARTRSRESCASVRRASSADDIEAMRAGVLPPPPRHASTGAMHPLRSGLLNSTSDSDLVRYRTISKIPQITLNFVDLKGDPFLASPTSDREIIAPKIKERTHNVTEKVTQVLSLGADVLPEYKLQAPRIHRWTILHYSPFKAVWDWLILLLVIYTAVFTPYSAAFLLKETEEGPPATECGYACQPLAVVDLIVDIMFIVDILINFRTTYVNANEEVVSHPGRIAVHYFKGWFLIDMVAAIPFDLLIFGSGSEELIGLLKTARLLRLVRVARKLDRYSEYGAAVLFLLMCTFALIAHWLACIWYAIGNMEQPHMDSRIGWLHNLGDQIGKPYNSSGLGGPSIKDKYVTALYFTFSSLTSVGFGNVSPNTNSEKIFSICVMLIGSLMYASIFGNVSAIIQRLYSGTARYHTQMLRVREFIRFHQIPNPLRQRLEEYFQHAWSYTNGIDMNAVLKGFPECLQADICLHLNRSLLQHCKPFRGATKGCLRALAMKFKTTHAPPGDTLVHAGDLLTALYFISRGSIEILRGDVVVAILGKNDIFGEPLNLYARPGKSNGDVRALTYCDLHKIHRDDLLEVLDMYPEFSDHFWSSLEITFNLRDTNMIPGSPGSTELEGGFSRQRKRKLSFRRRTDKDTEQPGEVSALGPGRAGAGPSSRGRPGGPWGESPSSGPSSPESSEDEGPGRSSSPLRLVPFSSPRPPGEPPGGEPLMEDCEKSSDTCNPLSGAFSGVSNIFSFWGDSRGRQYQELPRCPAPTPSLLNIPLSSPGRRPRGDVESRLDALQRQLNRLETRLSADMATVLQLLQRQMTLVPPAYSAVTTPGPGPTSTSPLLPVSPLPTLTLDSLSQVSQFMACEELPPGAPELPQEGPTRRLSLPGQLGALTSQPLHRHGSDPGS

heroin addict = conditions: oral, cited from earlier work

CC[C@H]1C[C@H]2C[C@H]3c4[nH]c5ccc(O)cc5c4CCN(C2)[C@@H]13 [NOR, noribogaine]
Cl ([1]; rat): 0.0064 mL/h
Vss ([1]; rat): 0.0119 mL
Cmax ([1]; rat plasma): 223.6 ng/mL
T_half ([1]; rat plasma): 1.4558 h
Tmax ([1]; rat plasma): 30 min
Cardiotoxicity: long QT syndrome / hERG block (hERG potassium channels): cause long QT syndrome by blocking hERG potassium channels

ibogaine
Treatments effective, share of cases (heroin addict; 6 mg/kg to 19 mg/kg): 71%
Duration of effect of a series of 4 treatments (heroin addict; series of 4 treatments): approximately 3 years
Duration of effect of a single treatment (heroin addict; single treatment): about 6 months
minimum effective dose (heroin addict): 400 mgs
